Tests used:
[1] = Inhibition of ND1 transcript level in human A2780 cells at 500 nM measured after 12 hrs by RT-qPCR analysis relative to control; type: functional
A2780 = assay: Antiproliferative activity against human A2780 cells incubated for 168 hrs by SRB method; type: functional, cell-based; conditions: A2780, 168 h

SMILES | IC50 (A2780) [nM] | inhibition at 0.5 µM [1] [%]
C[C@@H](Oc1ccc2c(-c3ccc(F)cc3Cl)cc(=O)oc2c1)C(=O)NCCN1CCS(=O)(=O)CC1 | 2520 | 86
C[C@@H](Oc1ccc2c(-c3ccccc3)cc(=O)oc2c1)C(=O)N1CC2CCC(C1)N2 | 423 | 43
O=C(O)[C@H]1CCCN(C(=O)C2CC(Oc3ccc4c(-c5ccc(F)cc5Cl)cc(=O)oc4c3)C2)C1 (some centres not stated) | > 10000 | 101
C[C@@H](Oc1ccc(C(=O)c2ccc(F)cc2Cl)cc1)C(=O)N1CCC[C@H](C(=O)O)C1 | > 10000 | 99
C[C@@H](Oc1ccc2c(-c3ccc(F)cc3Cl)cccc2c1)C(=O)N1CCC[C@H](C(=O)O)C1 | 652 | 45
C[C@@H](Oc1ccc2c(-c3ccc(F)cc3Cl)cc(=O)oc2c1)C(=O)NCCN1CCOCC1 | 1220 | 82
C[C@@H](Oc1ccc2c(-c3ccc(F)cc3Cl)csc2c1)C(=O)N1CCC[C@H](C(=O)O)C1 | > 10000 | 89
C[C@@H](Oc1ccc2c(-c3ccc(F)cc3Cl)cc(=O)oc2c1)C(=O)NCCC1CCOCC1 | 822 | 73
C[C@@H](Oc1cccc(-c2ccc(F)cc2Cl)c1)C(=O)N1CCC[C@H](C(=O)O)C1 | > 10000 | 95
C[C@@H](Oc1ccc2c(-c3ccc(F)cc3Cl)cc(=O)[nH]c2c1)C(=O)N1CCC[C@H](C(=O)O)C1 | > 10000 | 88
C[C@H](Oc1ccc2c(-c3ccc(F)cc3Cl)cc(=O)oc2c1)C(=O)N1CCC[C@H](C(=O)O)C1 | 287 | 34
C[C@@H](CO)NC(=O)[C@@H](C)Oc1ccc2c(-c3ccc(F)cc3Cl)cc(=O)oc2c1 | 208 | 32
O=C(O)[C@H]1CCCN(C(=O)C(F)(F)Oc2ccc3c(-c4ccc(F)cc4Cl)cc(=O)oc3c2)C1 | 322 | 37
CC(=O)N1CCN(C(=O)[C@@H](C)Oc2ccc3c(-c4ccc(F)cc4Cl)cc(=O)oc3c2)CC1 | 225 | 27
C[C@@H](Oc1ccc2c(-c3ccc(F)cc3Cl)cc(=O)oc2c1)C(=O)N1CCC[C@H]1CO | 432 | 42
C[C@@H](Oc1ccc2c(-c3ccc(F)cc3Cl)cc(=O)oc2c1)C(=O)NCCN | 282 | 26
C[C@@H](Oc1ccc2c(-c3cccc(F)c3)cc(=O)oc2c1)C(=O)N1CC2CCC(C1)N2 | 866 | 75
C[C@@H](Oc1ccc2c(-c3ccc(F)cc3Cl)ncnc2c1)C(=O)N1CCC[C@H](C(=O)O)C1 | > 10000 | 93
C[C@@H](Oc1ccc2c(-c3ccc(F)cc3Cl)cc(=O)oc2c1)C(=O)N1CCS(=O)(=O)CC1 | 291 | 35

Stronger by IC50 (A2780), values ahead:

IC50 (A2780) [nM] | SMILES | inhibition at 0.5 µM [1] [%]
178 | C[C@@H](Oc1ccc2c(-c3ccc(F)cc3Cl)cc(=O)oc2c1)C(=O)NCCCO | 22
172 | C[C@@H](Oc1ccc2c(-c3ccc(F)cc3Cl)cc(=O)oc2c1)C(=O)N1CCN(C)CC1 | 28
135 | C[C@@H](Oc1ccc2c(-c3ccc(F)cc3Cl)cc(=O)oc2c1)C(=O)NCCO | 23
131 | Cc1ccc(-c2cc(=O)oc3cc(O[C@H](C)C(=O)N4CC5CCC(C4)N5)ccc23)c(Cl)c1 | 28
129 | C[C@@H](Oc1ccc2c(-c3ccsc3)cc(=O)oc2c1)C(=O)N1CC2CCC(C1)N2 | 24
125 | Cc1cccc(-c2cc(=O)oc3cc(O[C@H](C)C(=O)N4CC5CCC(C4)N5)ccc23)c1 | 25
123 | C[C@@H](Oc1ccc2c(-c3ccc(F)cc3Cl)cc(=O)oc2c1)C(=O)N1CCNCC1 | 25
112 | C[C@@H](Oc1ccc2c(-c3ccc(F)cc3Cl)cc(=O)oc2c1)C(=O)N1CC2CC(C1)N2 | 24
92 | C[C@@H](Oc1ccc2c(C34C[C@H]5C[C@H](C3)C[C@@H](C4)C5)cc(=O)oc2c1)C(=O)N1CC2CCC(C1)N2 | 22
62 | Cc1ccc(-c2cc(=O)oc3cc(O[C@H](C)C(=O)N4CC5CCC(C4)N5)ccc23)cc1 | 11
43 | C[C@@H](Oc1ccc2c(-c3ccc(F)cc3Cl)cc(=O)oc2c1)C(=O)N1CC2CCC(C1)N2 | 8
42 | Cc1cc(F)ccc1-c1cc(=O)oc2cc(O[C@H](C)C(=O)N3CC4CCC(C3)N4)ccc12 | 12
